“And” between values parts separate entries of the source, which are not always exact repeats. Equal values may be shown once. Read-outs that look alike come from different tables or passages of the source.
Key:
non-expressing oocytes [1] = assay: cells; format: cell-based, Xenopus laevis; conditions: Xenopus laevis, Oocyte
Summary of the method: (§1)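 Washed oocytes (ten per treatment) were exposed to label in pH 5.5 ND96 for 1.5 h at 27.5 °C. Buffer was then removed, cells rinsed in ice-cold ND96, lysed in SDS and counted.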

PfCRT^Dd2 [2] = molecular target: T1, PfCRT^Dd2 (Plasmodium falciparum, UniProt Q9N623, A220S/I356T/K76T/M74I/N326S/N75E/Q271E/R371I); assay: [3H]CQ uptake into Xenopus oocytes, cis-inhibition by unlabelled solute; format: cell-based
T1 sequence (Q9N623 whole entry A220S/I356T/K76T/M74I/N326S/N75E/Q271E/R371I): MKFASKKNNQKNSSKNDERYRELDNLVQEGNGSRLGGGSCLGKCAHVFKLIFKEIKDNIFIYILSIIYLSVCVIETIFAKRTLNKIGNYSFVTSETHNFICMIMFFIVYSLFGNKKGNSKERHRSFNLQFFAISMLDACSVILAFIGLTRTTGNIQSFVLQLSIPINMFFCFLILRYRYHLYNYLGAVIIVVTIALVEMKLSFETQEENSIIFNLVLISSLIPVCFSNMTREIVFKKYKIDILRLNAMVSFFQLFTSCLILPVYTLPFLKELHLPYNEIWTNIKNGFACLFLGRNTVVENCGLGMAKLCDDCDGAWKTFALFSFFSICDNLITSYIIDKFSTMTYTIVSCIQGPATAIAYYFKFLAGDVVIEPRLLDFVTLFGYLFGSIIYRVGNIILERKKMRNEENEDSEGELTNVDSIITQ
Summary of the method: as §1

PfCRT^Ecu1110 [3] = molecular target: T2, PfCRT^Ecu1110 (Plasmodium falciparum, UniProt Q9N623, A220S/I356L/K76T/N326D); assay: as above; format: cell-based
T2 sequence (Q9N623 whole entry A220S/I356L/K76T/N326D): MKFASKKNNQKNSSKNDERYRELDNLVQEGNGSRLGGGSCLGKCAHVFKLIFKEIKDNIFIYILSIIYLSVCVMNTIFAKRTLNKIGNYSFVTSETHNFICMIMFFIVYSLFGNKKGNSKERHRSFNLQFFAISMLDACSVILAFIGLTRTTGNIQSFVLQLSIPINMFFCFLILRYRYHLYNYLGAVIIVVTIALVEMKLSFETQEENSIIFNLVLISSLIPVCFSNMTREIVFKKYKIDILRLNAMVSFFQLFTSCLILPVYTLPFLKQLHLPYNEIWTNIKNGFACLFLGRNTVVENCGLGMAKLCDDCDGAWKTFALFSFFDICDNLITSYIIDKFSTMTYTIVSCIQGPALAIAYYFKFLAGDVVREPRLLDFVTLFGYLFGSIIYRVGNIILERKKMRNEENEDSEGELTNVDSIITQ
Summary of the method: as §1

PfCRT [4] = assay: Influx of VF-6 via PfCRT into the oocyte, solutes tested as potential co-substrates; format: cell-based, Plasmodium falciparum; parameters: key: X: Compounds that have been tested as potential co-substrates but are not required for influx of VF-6 via PfCRT into the oocyte; conditions: X marks the solute
PfCRT^3D7 [5] = molecular target: T3, PfCRT^3D7 (Plasmodium falciparum, UniProt Q8IBZ9); assay: cell-based; format: cell-based
T3 sequence (Q8IBZ9 59-398): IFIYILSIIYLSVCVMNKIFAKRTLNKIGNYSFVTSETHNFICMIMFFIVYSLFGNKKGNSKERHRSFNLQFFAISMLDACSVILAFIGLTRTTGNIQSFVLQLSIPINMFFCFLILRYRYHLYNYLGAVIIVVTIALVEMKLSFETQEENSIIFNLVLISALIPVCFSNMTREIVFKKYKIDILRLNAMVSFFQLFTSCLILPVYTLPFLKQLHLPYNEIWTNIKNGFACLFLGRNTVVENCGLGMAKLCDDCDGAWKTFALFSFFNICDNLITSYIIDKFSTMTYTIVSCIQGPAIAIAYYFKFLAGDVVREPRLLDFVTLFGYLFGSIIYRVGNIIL
Summary of the method: as §1

non-expressing oocytes [6] = format: cell-based, Xenopus laevis
Summary of the method: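 Oocytes (ten per treatment, ≥4 independent frogs/days) were preloaded by injecting VF-6 in 25 nL ND96 at pH 5.0, 5.5, 6.0 or 7.0, or Na^+-free choline buffer, then uptake run 1.5 h, 27.5 °C, ND96 pH 5.5 by default. Internal concentrations assumed ~400 nL oocyte volume.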

PfNT1 = molecular target: T4, PfNT1 (Plasmodium falciparum, UniProt Q8IDM6); assay: cell-based; format: cell-based; conditions: […]
T4 construct: expressed in transfected cells; host or cells: Xenopus laevis oocytes (stage V-VI), cRNA-injected
T4 sequence (Q8IDM6 whole entry): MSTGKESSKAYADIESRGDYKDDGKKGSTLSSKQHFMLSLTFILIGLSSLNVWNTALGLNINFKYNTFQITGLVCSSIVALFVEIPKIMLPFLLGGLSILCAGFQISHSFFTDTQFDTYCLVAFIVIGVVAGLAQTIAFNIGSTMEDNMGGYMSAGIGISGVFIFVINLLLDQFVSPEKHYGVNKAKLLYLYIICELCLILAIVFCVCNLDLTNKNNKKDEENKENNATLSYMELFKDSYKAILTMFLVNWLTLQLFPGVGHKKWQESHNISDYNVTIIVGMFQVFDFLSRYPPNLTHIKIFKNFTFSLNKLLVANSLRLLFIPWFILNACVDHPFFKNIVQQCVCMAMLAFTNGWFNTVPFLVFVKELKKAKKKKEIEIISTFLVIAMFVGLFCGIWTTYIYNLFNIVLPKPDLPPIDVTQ
Summary of the method: (§2)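 Transport measured in Xenopus oocytes expressing the transporters, 1.5 h at 27.5 °C in ND96 pH 5.5 unless noted. For trans-stimulation, VF-6 injected in 25 nL ND96 at pH 5.0–7.0 or Na^+-free (choline) buffer; intracellular levels based on ~400 nL oocyte volume. Ten oocytes per treatment, ≥4 experiments.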

PfCRT^3D7 [7] = molecular target: T3, PfCRT^3D7; assay: cell-based; format: cell-based; remark: listed apart in the source
Summary of the method: as §2

PfCRT^Dd2 [8] = molecular target: T1, PfCRT^Dd2; assay: cell-based; format: cell-based; conditions: […]
Summary of the method: as §2

PfCRT^Ecu1110 [9] = molecular target: T2, PfCRT^Ecu1110; assay: cell-based; format: cell-based; conditions: […]
Summary of the method: as §2

PfCRT [10] = assay: Test of solutes as potential co-substrates for influx of VF-6 via PfCRT into the oocyte; format: cell-based, Plasmodium falciparum; parameters: key: X: Compounds that have been tested as potential co-substrates but are not required for influx of VF-6 via PfCRT into the oocyte; conditions: X = tested
[11] = read-out: Uptake of [3H]CQ (% PfCRTDd2 control), cis-inhibition, non-expressing oocytes, SEM
[12] = read-out: Uptake of [3H]CQ (% non-expressing oocyte control), cis-inhibition
[13] = read-out: PfCRT-mediated [3H]CQ transport, cis-inhibition (% PfCRTDd2 control)
[14] = read-out: Uptake of [3H]CQ (% PfCRTDd2 control), cis-inhibition, PfCRTDd2, SEM
[15] = read-out: PfCRT-mediated [3H]CQ transport, cis-inhibition (% PfCRTEcu1110 control)
[16] = read-out: Uptake of [3H]CQ (% PfCRTDd2 control), cis-inhibition, PfCRTEcu1110, SEM
[17] = read-out: Uptake of [3H]CQ (% PfCRTEcu1110 control), cis-inhibition
[18] = read-out: [3H]CQ transport (% PfCRTEcu1110 control), cis-inhibition, PfCRTEcu1110, SEM
[19] = read-out: Uptake of [3H]CQ (% PfCRT3D7 control), cis-inhibition
[20] = read-out: Uptake of [3H]CQ (% PfCRTDd2 control), cis-inhibition, PfCRT3D7, SEM
[21] = read-out: Uptake of [3H]CQ (% PfCRTDd2 control), trans-stimulation, PfNT1, SEM
[22] = read-out: Uptake of [3H]CQ (% PfNT1 control), trans-stimulation
[23] = read-out: PfCRT-mediated [3H]CQ transport, trans-stimulation (% PfCRT3D7 control)
[24] = read-out: Uptake of [3H]CQ (% PfCRT3D7 control), trans-stimulation
[25] = read-out: Uptake of [3H]CQ (% PfCRTDd2 control), trans-stimulation, PfCRT3D7, SEM

Compound CSCC[C@H](N)C(=O)O [L-methionine] has an inhibition at 500 µM (non-expressing oocytes [1]; [11]) of 2.7 ± 0.03%, an inhibition at 1000 µM (non-expressing oocytes [1]; [11]) of 2.5 ± 0.01% and an inhibition at 2000 µM (non-expressing oocytes [1]; [11]) of 2.9 ± 0.04%. For the same compound, the inhibition at 500 µM (non-expressing oocytes [1]; [12]) was 99 ± 3.6%, the inhibition at 1000 µM (non-expressing oocytes [1]; [12]) was 99 ± 3.5% and the inhibition at 2000 µM (non-expressing oocytes [1]; [12]) was 101 ± 4.6%. It also gave an inhibition at 500 µM (PfCRT^Dd2 [2]; [13]) of 96 ± 3.6%, an inhibition at 2000 µM (PfCRT^Dd2 [2]; [13]) of 95 ± 5.1% and an inhibition at 500 µM (PfCRT^Dd2 [2]; [14]) of 98 ± 2.4%. It also gave an inhibition at 1000 µM (PfCRT^Dd2 [2]; [14]) of 100 ± 2.1%, an inhibition at 2000 µM (PfCRT^Dd2 [2]; [14]) of 97 ± 2.4% and an inhibition at 500 µM (PfCRT^Ecu1110 [3]; [15]) of 94 ± 4.4%. It also gave an inhibition at 1000 µM (PfCRT^Ecu1110 [3]; [15]) of 95 ± 3.1%, an inhibition at 2000 µM (PfCRT^Ecu1110 [3]; [15]) of 98 ± 1.5% and an inhibition at 500 µM (PfCRT^Ecu1110 [3]; [16]) of 31 ± 1.5%. For the same compound, the inhibition at 1000 µM (PfCRT^Ecu1110 [3]; [16]) was 32 ± 1.1%, the inhibition at 2000 µM (PfCRT^Ecu1110 [3]; [16]) was 33 ± 1.2% and the inhibition at 500 µM (PfCRT^Ecu1110 [3]; [17]) was 96 ± 2.5%. For the same compound, the inhibition at 1000 µM (PfCRT^Ecu1110 [3]; [17]) was 97 ± 5.3%, the inhibition at 2000 µM (PfCRT^Ecu1110 [3]; [17]) was 100 ± 2.5% and the inhibition at 500 µM (PfCRT^Ecu1110 [3]; [18]) was 28 ± 0.5%. For the same compound, the inhibition at 1000 µM (PfCRT^Ecu1110 [3]; [18]) was 29 ± 0.5%, the inhibition at 2000 µM (PfCRT^Ecu1110 [3]; [18]) was 30 ± 0.5% and the “Compounds that have been tested as potential co-substrates but are not required for influx of VF-6 via PfCRT into the oocyte” value (PfCRT [4]) was “X”. For the same compound, the inhibition at 500 µM (PfCRT^3D7 [5]; [19]) was 100 ± 3.6%, the inhibition at 1000 µM (PfCRT^3D7 [5]; [19]) was 100 ± 3.3% and the inhibition at 2000 µM (PfCRT^3D7 [5]; [19]) was 102 ± 2.5%. It also gave an inhibition at 500 µM (PfCRT^3D7 [5]; [20]) of 2.4 ± 0.07%, an inhibition at 1000 µM (PfCRT^3D7 [5]; [20]) of 2.2 ± 0.06% and an inhibition at 2000 µM (PfCRT^3D7 [5]; [20]) of 3.4 ± 0.07%. The “Uptake of [3H]CQ (% non-expressing oocyte control), trans-stimulation” value (non-expressing oocytes [6]) was 99 ± 3.8 % non-expressing oocyte control and 98 ± 4.2 % non-expressing oocyte control, the “Uptake of [3H]CQ (% PfCRTDd2 control), trans-stimulation, non-expressing oocytes” value (non-expressing oocytes [6]; SEM) was 2.4 ± 0.02 % PfCRTDd2 control and 2.8 ± 0.03 % PfCRTDd2 control and the activity at 5000 µM (PfNT1; [21]) was 2.2 ± 0.06%. It also gave an activity at 45000 µM (PfNT1; [21]) of 2.7 ± 0.04%, an activity at 5000 µM (PfNT1; [22]) of 100 ± 2.5% and an activity at 45000 µM (PfNT1; [22]) of 99 ± 2.6%. The “[3H]CQ transport (% PfCRT3D7 control), trans-stimulation, PfCRT3D7” value (PfCRT^3D7 [7]; SEM) was 0.3 ± 0.03 % PfCRT3D7 control, the activity at 5000 µM (PfCRT^3D7 [7]; [23]) was 97 ± 2.1% and the activity at 45000 µM (PfCRT^3D7 [7]; [23]) was 97 ± 2.7%. The activity at 5000 µM (PfCRT^3D7 [7]; [24]) was 99 ± 3.6%, the activity at 45000 µM (PfCRT^3D7 [7]; [24]) was 99 ± 3.1% and the activity at 5000 µM (PfCRT^3D7 [7]; [25]) was 3.3 ± 0.03%. For the same compound, the activity at 45000 µM (PfCRT^3D7 [7]; [25]) was 3.3 ± 0.02%, the activity at 5000 µM (PfCRT^Dd2 [8]; pH 5.5, read-out: Uptake of [3H]CQ (% PfCRTDd2 control), trans-stimulation, PfCRTDd2, total [3H]CQ transport, [test solute]i = 5 mM (intracellular), mean ± SEM, SEM) was 100 ± 3.2% and the activity at 5000 µM (PfCRT^Dd2 [8]; pH 5.5, read-out: Uptake of [3H]CQ (% PfCRTDd2 control), trans-stimulation, PfCRTDd2 oocytes, [test solute]i = 5 mM, total [3H]CQ transport, normalised to the oocyte type control) was 100 ± 3.2%. For the same compound, the activity at 45000 µM (PfCRT^Dd2 [8]; pH 5.5, read-out: Uptake of [3H]CQ (% PfCRTDd2 control), trans-stimulation, PfCRTDd2 oocytes, [test solute]i = 45 mM (30 mM for some solutes due to solubility), total [3H]CQ transport, normalised to the oocyte type control) was 99 ± 1%, the activity at 5000 µM (PfCRT^Ecu1110 [9]; pH 5.5, read-out: Uptake of [3H]CQ (% PfCRTEcu1110 control), trans-stimulation, PfCRTEcu1110 oocytes, [test solute]i = 5 mM, total [3H]CQ transport, normalised to the oocyte type control) was 98 ± 2.1% and the activity at 45000 µM (PfCRT^Ecu1110 [9]; pH 5.5, read-out: Uptake of [3H]CQ (% PfCRTEcu1110 control), trans-stimulation, PfCRTEcu1110 oocytes, [test solute]i = 45 mM (30 mM for some solutes due to solubility), total [3H]CQ transport, normalised to the oocyte type control) was 100 ± 3.2%. The activity at 5000 µM (PfCRT^Ecu1110 [9]; read-out: Uptake of [3H]CQ (% PfCRTDd2 control), trans-stimulation, PfCRTEcu1110, total [3H]CQ transport, [test solute]i = 5 mM (intracellular), mean ± SEM, SEM) was 35 ± 1.3%, the activity at 45000 µM (PfCRT^Ecu1110 [9]; read-out: Uptake of [3H]CQ (% PfCRTDd2 control), trans-stimulation, PfCRTEcu1110, total [3H]CQ transport, [test solute]i = 45 mM (intracellular; 30 mM for some solutes due to solubility), mean ± SEM, SEM) was 36 ± 2.2% and the “Tested as potential co-substrate but not required for influx of VF-6 via PfCRT into the oocyte” value (PfCRT [10]) was “X”.
